Data: patent publication US8153645B2, “Treating pain using selective antagonists of persistent sodium current” (Allergan, Inc., priority 2003, dated 2012)

Key:
[1] = test system: tactile allodynia; experiment: Spinal nerve ligation (Chung) model of neuropathic pain, tactile allodynia by von Frey hairs; assay type: in vivo; conditions: rat, 10 mg/kg i.p., 30 minutes after dosing, FIG. 6
Protocol: Paw withdrawal threshold (gram force) was determined using von Frey filament stimulation and the Dixon's up-down method. Allodynic response was measured at baseline (0 min) and at 15, 30, 60 and 120 min after of 10 mg/kg IP injection of Compound 1 or vehicle control. Percent reversal of allodynia compared with non-injected rats was calculated. Six rats were used at each dose. Data were analyzed by analysis of variance and Dunnett's test reversal of allodynia was considered significant if P<0.05
Compound 1 was tested in a rodent model of neuropathic pain known to be predictive of clinical activity, see, e.g., Kim & Chung, supra, (1992). Following ligation of two spinal nerves, the animals developed sensitivity to normally non-painful stimuli such as touch. The ability of Compound 1 to reverse this sensitivity, called allodynia, was tested 30 minutes after dosing by intraperitoneal administration.
The animal model used involved the surgical ligation of the L5 (and optionally the L6) spinal nerves on one side in experimental animals. […]
Tactile allodynia was measured prior to and 30 minutes after drug administration using von Frey hairs, which are a series of fine hairs with incremental differences in stiffness. […] The applied force has been calculated to range from 0.41 to 15.1 grams. […]

[2] = molecular target: T1, Nav1.3 sodium channel (Homo sapiens, UniProt Q9NY46)
T1 sequence (Q9NY46 whole entry): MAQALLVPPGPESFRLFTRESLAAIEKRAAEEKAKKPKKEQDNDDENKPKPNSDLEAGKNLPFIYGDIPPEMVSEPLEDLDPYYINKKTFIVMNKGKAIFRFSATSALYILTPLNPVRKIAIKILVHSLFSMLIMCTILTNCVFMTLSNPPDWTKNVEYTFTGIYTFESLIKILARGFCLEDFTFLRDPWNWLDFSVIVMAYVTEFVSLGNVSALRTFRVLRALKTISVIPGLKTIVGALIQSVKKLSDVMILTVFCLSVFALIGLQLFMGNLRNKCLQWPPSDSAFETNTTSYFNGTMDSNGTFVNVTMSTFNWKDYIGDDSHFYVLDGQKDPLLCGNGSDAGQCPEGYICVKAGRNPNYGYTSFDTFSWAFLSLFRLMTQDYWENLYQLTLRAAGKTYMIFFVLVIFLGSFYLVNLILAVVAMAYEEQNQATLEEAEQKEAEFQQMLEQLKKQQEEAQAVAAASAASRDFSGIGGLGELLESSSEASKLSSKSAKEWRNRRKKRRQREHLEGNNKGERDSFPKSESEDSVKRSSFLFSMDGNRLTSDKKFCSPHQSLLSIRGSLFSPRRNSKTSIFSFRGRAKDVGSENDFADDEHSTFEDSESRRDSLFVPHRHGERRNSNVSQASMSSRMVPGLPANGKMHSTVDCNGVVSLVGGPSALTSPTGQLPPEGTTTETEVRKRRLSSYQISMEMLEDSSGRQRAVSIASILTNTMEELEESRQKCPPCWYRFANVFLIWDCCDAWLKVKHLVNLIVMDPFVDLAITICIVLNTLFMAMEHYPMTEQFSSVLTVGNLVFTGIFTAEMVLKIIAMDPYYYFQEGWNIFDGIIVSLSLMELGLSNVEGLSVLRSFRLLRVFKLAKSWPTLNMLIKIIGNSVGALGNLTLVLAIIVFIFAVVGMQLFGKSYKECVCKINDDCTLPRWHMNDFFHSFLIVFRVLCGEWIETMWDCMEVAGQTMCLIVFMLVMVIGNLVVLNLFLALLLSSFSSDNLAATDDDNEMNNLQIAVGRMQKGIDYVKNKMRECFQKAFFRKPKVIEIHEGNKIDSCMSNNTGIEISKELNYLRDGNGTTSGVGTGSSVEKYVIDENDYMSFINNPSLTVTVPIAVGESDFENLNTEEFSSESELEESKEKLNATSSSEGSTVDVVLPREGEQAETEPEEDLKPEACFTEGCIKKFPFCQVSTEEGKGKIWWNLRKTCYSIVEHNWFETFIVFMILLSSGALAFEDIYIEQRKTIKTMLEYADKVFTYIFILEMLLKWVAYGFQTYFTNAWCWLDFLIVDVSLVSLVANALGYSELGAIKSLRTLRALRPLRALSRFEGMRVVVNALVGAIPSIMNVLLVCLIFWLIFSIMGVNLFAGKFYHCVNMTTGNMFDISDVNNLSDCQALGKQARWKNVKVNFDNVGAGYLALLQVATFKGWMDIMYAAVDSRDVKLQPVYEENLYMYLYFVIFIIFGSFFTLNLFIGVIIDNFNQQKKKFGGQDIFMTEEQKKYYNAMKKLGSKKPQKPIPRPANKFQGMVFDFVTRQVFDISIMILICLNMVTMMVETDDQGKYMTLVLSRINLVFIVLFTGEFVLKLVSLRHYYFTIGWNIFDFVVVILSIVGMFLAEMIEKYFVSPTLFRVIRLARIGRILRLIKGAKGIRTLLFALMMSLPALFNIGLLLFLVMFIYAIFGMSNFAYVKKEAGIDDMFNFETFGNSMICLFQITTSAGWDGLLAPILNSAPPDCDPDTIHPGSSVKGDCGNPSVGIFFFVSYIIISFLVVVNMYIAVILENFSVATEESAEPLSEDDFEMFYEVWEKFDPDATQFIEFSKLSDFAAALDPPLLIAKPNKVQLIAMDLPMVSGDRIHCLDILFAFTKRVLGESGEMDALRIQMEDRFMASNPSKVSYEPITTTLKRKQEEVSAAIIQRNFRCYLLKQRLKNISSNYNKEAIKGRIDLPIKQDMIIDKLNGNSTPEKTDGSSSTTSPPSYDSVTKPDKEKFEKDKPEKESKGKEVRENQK

[3] = molecular target: T1, Nav1.3 sodium channel; experiment: High-throughput persistent sodium current assay (VIPR, FRET dyes): Na+-dependent depolarization of HEK-Nav1.3 cells; assay type: cell-based; set-up: expressed in transfected cells; host or cells: HEK-293 (human embryonic kidney) cells, G418-selected (HEK-Nav1.3); conditions: 10 μM tetracaine, HEK-Nav1.3, FIG. 2
[4] = 3 μM, 200 msec pulse to 0 mV from -90 mV, FIG. 4

Block of persistent current [2, 4] [%] | Reduction of transient current [2, 4] [%] | Hillslope, persistent current (Ip) ([2]; Hill equation fit, FIG. 5) | Hillslope, transient Na+ current (It) ([2]; Hill equation fit, FIG. 5) | Inhibition of Na+-dependent change in Rf/Ri (depolarization) [3] | Structure (SMILES) | Reduction in allodynia with respect to a vehicle control [1] [%]
99 | 16 | 0.733 | 0.354 | – | O=C(NCCCCc1ccccc1)c1cccs1 [Compound 1, thiophene-2-carboxylic acid (4-phenyl-butyl)-amide] | 80
– | – | – | – | inhibited | CCCCNc1ccc(C(=O)OCCN(C)C)cc1 [Tetracaine, tetracaine] | –
